# What was measured:
# Test in all cases: relative viability (nuclei count vs DMSO), 5 days (fraction); higher = more cells survive
# [1] = compound: CCC1=CN=CN=C1N2CCN(CC2)CC3=NC4=C(N3)C=C(C=C4)C(F)(F)F + Cc1cc(Nc2cc(N3CCN(C)CC3)nc(Sc3ccc(NC(=O)C4CC4)cc3)n2)n[nH]1 [Tozasertib] (partner 0.1 µM)
# Procedure, shortened: (§1)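 Relative viability was taken as the ratio of nuclei in treated wells to nuclei in vehicle wells. Lung cancer cell lines in 1536-well plates received compounds by pin tool one day after seeding, either one drug alone or a fixed anchor-drug dose plus five library-drug doses (not always all listed) in √10 steps. Nuclei were counted on 4× images after 5 days of treatment, and values are medians of duplicate plates.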
# Mirin + Bortezomib = compound: N=C1NC(=O)/C(=C/c2ccc(O)cc2)S1 [Mirin] + CC(C)C[C@H](NC(=O)[C@H](Cc1ccccc1)NC(=O)c1cnccn1)B(O)O [Bortezomib] (partner 0.002 µM)
# Procedure, shortened: as §1
# Mirin + Pictilisib = compound: N=C1NC(=O)/C(=C/c2ccc(O)cc2)S1 [Mirin] + CS(=O)(=O)N1CCN(Cc2cc3nc(-c4cccc5[nH]ncc45)nc(N4CCOCC4)c3s2)CC1 [Pictilisib] (partner 1 µM)
# Procedure, shortened: as §1
# Mirin + Olaparib = compound: N=C1NC(=O)/C(=C/c2ccc(O)cc2)S1 [Mirin] + O=C(c1cc(Cc2n[nH]c(=O)c3ccccc23)ccc1F)N1CCN(C(=O)C2CC2)CC1 [Olaparib] (partner 8 µM)
# Procedure, shortened: as §1
cell line,measurement,setting,value
NCI-H3122,relative viability,[1]; first compound 0.04 µM,0.423
same,relative viability,[1]; first compound 0.1265 µM,0.405
same,relative viability,[1]; first compound 0.4 µM,0.384
same,relative viability,[1]; first compound 1.265 µM,0.345
same,relative viability,[1]; first compound 4 µM,0.439
same,relative viability,Mirin + Bortezomib; first compound 0.25 µM,1.06
same,relative viability,Mirin + Bortezomib; first compound 0.7906 µM,0.985
same,relative viability,Mirin + Bortezomib; first compound 2.5 µM,0.986
same,relative viability,Mirin + Bortezomib; first compound 7.906 µM,1.1
same,relative viability,Mirin + Bortezomib; first compound 25 µM,1.1
same,relative viability,Mirin + Pictilisib; first compound 0.25 µM,0.541
same,relative viability,Mirin + Pictilisib; first compound 0.7906 µM,0.515
same,relative viability,Mirin + Pictilisib; first compound 2.5 µM,0.576
same,relative viability,Mirin + Pictilisib; first compound 7.906 µM,0.673
same,relative viability,Mirin + Pictilisib; first compound 25 µM,0.7
same,relative viability,Mirin + Olaparib; first compound 0.25 µM,0.691
same,relative viability,Mirin + Olaparib; first compound 0.7906 µM,0.667
same,relative viability,Mirin + Olaparib; first compound 2.5 µM,0.566
same,relative viability,Mirin + Olaparib; first compound 7.906 µM,0.623
same,relative viability,Mirin + Olaparib; first compound 25 µM,0.664
NCI-H2126,relative viability,[1]; first compound 0.04 µM,0.837
same,relative viability,[1]; first compound 0.1265 µM,0.812
same,relative viability,[1]; first compound 0.4 µM,0.813
same,relative viability,[1]; first compound 1.265 µM,0.734
same,relative viability,[1]; first compound 4 µM,0.832
same,relative viability,Mirin + Bortezomib; first compound 0.25 µM,1.12
same,relative viability,Mirin + Bortezomib; first compound 0.7906 µM,1.11
same,relative viability,Mirin + Bortezomib; first compound 2.5 µM,1.12
same,relative viability,Mirin + Bortezomib; first compound 7.906 µM,1.07
same,relative viability,Mirin + Bortezomib; first compound 25 µM,1.2
same,relative viability,Mirin + Pictilisib; first compound 0.25 µM,0.533
same,relative viability,Mirin + Pictilisib; first compound 0.7906 µM,0.406
same,relative viability,Mirin + Pictilisib; first compound 2.5 µM,0.465
same,relative viability,Mirin + Pictilisib; first compound 7.906 µM,0.456
same,relative viability,Mirin + Pictilisib; first compound 25 µM,0.448
same,relative viability,Mirin + Olaparib; first compound 0.25 µM,0.929
same,relative viability,Mirin + Olaparib; first compound 0.7906 µM,0.925
same,relative viability,Mirin + Olaparib; first compound 2.5 µM,0.951
same,relative viability,Mirin + Olaparib; first compound 7.906 µM,0.947
same,relative viability,Mirin + Olaparib; first compound 25 µM,0.959
NCI-H520,relative viability,[1]; first compound 0.04 µM,0.423
same,relative viability,[1]; first compound 0.1265 µM,0.432
same,relative viability,[1]; first compound 0.4 µM,0.403
same,relative viability,[1]; first compound 4 µM,0.452
same,relative viability,Mirin + Bortezomib; first compound 0.25 µM,0.503
same,relative viability,Mirin + Bortezomib; first compound 0.7906 µM,0.13
same,relative viability,Mirin + Bortezomib; first compound 2.5 µM,0.632
same,relative viability,Mirin + Bortezomib; first compound 7.906 µM,0.355
same,relative viability,Mirin + Bortezomib; first compound 25 µM,0.358
same,relative viability,Mirin + Pictilisib; first compound 0.25 µM,0.275
same,relative viability,Mirin + Pictilisib; first compound 0.7906 µM,0.284
same,relative viability,Mirin + Pictilisib; first compound 2.5 µM,0.274
same,relative viability,Mirin + Pictilisib; first compound 7.906 µM,0.202
same,relative viability,Mirin + Pictilisib; first compound 25 µM,0.181
same,relative viability,Mirin + Olaparib; first compound 0.25 µM,0.311
same,relative viability,Mirin + Olaparib; first compound 0.7906 µM,0.336
same,relative viability,Mirin + Olaparib; first compound 2.5 µM,0.307
same,relative viability,Mirin + Olaparib; first compound 7.906 µM,0.349
same,relative viability,Mirin + Olaparib; first compound 25 µM,0.187
LOU-NH91,relative viability,[1]; first compound 0.04 µM,0.625
same,relative viability,[1]; first compound 0.1265 µM,0.68
same,relative viability,[1]; first compound 0.4 µM,0.669
same,relative viability,[1]; first compound 1.265 µM,0.585
same,relative viability,[1]; first compound 4 µM,0.657
same,relative viability,Mirin + Bortezomib; first compound 0.25 µM,0.417
same,relative viability,Mirin + Bortezomib; first compound 2.5 µM,0.47
same,relative viability,Mirin + Bortezomib; first compound 7.906 µM,0.455
same,relative viability,Mirin + Bortezomib; first compound 25 µM,0.503
same,relative viability,Mirin + Pictilisib; first compound 0.25 µM,0.499
same,relative viability,Mirin + Pictilisib; first compound 2.5 µM,0.496
same,relative viability,Mirin + Pictilisib; first compound 7.906 µM,0.502
same,relative viability,Mirin + Pictilisib; first compound 25 µM,0.46
same,relative viability,Mirin + Olaparib; first compound 0.25 µM,0.927
same,relative viability,Mirin + Olaparib; first compound 0.7906 µM,0.976
same,relative viability,Mirin + Olaparib; first compound 2.5 µM,0.946
same,relative viability,Mirin + Olaparib; first compound 7.906 µM,0.943
same,relative viability,Mirin + Olaparib; first compound 25 µM,1.09
NCI-H1651,relative viability,[1]; first compound 0.04 µM,0.82
same,relative viability,[1]; first compound 0.1265 µM,0.728
same,relative viability,[1]; first compound 0.4 µM,0.687
same,relative viability,[1]; first compound 1.265 µM,0.583
same,relative viability,[1]; first compound 4 µM,0.714
same,relative viability,Mirin + Bortezomib; first compound 0.25 µM,0.912
same,relative viability,Mirin + Bortezomib; first compound 0.7906 µM,0.959
same,relative viability,Mirin + Bortezomib; first compound 2.5 µM,0.931
same,relative viability,Mirin + Bortezomib; first compound 7.906 µM,0.854
same,relative viability,Mirin + Bortezomib; first compound 25 µM,0.916
same,relative viability,Mirin + Pictilisib; first compound 0.25 µM,0.62
same,relative viability,Mirin + Pictilisib; first compound 0.7906 µM,0.597
same,relative viability,Mirin + Pictilisib; first compound 2.5 µM,0.573
same,relative viability,Mirin + Pictilisib; first compound 7.906 µM,0.488
same,relative viability,Mirin + Pictilisib; first compound 25 µM,0.554
same,relative viability,Mirin + Olaparib; first compound 0.25 µM,0.182
same,relative viability,Mirin + Olaparib; first compound 0.7906 µM,0.208
same,relative viability,Mirin + Olaparib; first compound 2.5 µM,0.182
same,relative viability,Mirin + Olaparib; first compound 7.906 µM,0.167
same,relative viability,Mirin + Olaparib; first compound 25 µM,0.199
NCI-H460,relative viability,[1]; first compound 0.04 µM,0.437
same,relative viability,[1]; first compound 0.1265 µM,0.403
same,relative viability,[1]; first compound 0.4 µM,0.404
same,relative viability,[1]; first compound 1.265 µM,0.315
same,relative viability,[1]; first compound 4 µM,0.4
same,relative viability,Mirin + Bortezomib; first compound 0.25 µM,1.22
same,relative viability,Mirin + Bortezomib; first compound 0.7906 µM,1.2
same,relative viability,Mirin + Bortezomib; first compound 2.5 µM,1.21
same,relative viability,Mirin + Bortezomib; first compound 7.906 µM,1.12
same,relative viability,Mirin + Bortezomib; first compound 25 µM,1.15
same,relative viability,Mirin + Pictilisib; first compound 0.25 µM,0.347
same,relative viability,Mirin + Pictilisib; first compound 0.7906 µM,0.152
same,relative viability,Mirin + Pictilisib; first compound 2.5 µM,0.347
same,relative viability,Mirin + Pictilisib; first compound 7.906 µM,0.333
same,relative viability,Mirin + Pictilisib; first compound 25 µM,0.235
same,relative viability,Mirin + Olaparib; first compound 0.25 µM,0.505
same,relative viability,Mirin + Olaparib; first compound 0.7906 µM,0.447
same,relative viability,Mirin + Olaparib; first compound 2.5 µM,0.438
same,relative viability,Mirin + Olaparib; first compound 7.906 µM,0.413
same,relative viability,Mirin + Olaparib; first compound 25 µM,0.557

# Source: the supplement of paper PMC10307832
